In patent US20240132467A1, “BENZIMIDAZOLE DERIVATIVES FOR TREATING RESPIRATORY DISEASE” (TMEM16A Limited, priority 2020, published 2024) one finds activation and EC50 data, which are given here for 22 compounds.

This test addresses T1, human TMEM16A (TMEM16Aabc variant) (Homo sapiens, UniProt Q5XXA6, DEL476-501).
T1 sequence (Q5XXA6 with tags, fused parts or gaps isoform Q5XXA6-5 DEL539-564): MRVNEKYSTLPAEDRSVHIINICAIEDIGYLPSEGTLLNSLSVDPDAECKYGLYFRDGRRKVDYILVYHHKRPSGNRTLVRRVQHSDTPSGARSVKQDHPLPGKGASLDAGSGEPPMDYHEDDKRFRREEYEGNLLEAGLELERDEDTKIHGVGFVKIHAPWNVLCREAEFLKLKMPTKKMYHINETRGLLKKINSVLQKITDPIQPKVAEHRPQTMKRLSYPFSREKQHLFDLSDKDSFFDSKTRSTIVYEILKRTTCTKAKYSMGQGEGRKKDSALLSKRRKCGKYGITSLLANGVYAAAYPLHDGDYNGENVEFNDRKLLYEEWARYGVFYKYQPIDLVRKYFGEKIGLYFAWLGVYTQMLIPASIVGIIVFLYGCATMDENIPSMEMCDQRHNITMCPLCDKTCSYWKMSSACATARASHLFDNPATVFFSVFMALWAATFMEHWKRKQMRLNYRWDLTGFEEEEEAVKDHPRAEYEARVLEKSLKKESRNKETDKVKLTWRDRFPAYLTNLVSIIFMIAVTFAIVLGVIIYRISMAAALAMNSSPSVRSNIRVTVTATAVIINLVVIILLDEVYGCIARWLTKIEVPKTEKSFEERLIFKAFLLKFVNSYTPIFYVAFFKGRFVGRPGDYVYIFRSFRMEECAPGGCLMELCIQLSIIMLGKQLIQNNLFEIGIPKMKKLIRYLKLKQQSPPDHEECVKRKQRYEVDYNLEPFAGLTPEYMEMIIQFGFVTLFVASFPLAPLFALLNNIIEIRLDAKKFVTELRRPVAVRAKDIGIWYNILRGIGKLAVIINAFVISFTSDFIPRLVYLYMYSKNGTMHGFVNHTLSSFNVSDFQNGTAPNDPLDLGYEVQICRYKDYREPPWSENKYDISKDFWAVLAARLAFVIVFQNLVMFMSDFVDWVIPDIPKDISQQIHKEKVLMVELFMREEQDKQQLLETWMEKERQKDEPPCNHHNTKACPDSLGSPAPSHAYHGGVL
In words: Automated whole-cell patch clamp (Qpatch) TMEM16A potentiator assay in FRT cells stably expressing human TMEM16A. The note with it: for activation at 3.33 µM: 3.33 μM test compound, percentage increase of baseline TMEM16A current at +70 mV, intracellular calcium at EC20, read-out: % Potentiation @ 3.33 μM Avg; for EC50: cumulative concentration response, 5 min per concentration, whole-cell patch clamp. It is filed as cell-based. The protocol: Automated whole-cell patch clamp assay to detect TMEM16A activity in recombinant cells Cell culture and preparation
Fisher rat thyroid (FRT) cells stably expressing human TMEM16A (TMEM16Aabc variant; Dr Luis Galietta, Insituto Giannina, Italy) were cultured in T-75 flasks in Hams F-12 media with Coon's modification (Sigma) supplemented with 10% (v/v) foetal bovine serum, penicillin-streptomycin (10,000 U/mL/10000 μg/mL), G-418 (750μg/mL), L-glutamine (2 mM) and sodium bicarbonate solution (7.5% v/v). At —90% confluence cells were harvested for experiments by detachment with a 2:1 (v/v) mixture of Detachin (BMS Biotechnology) and 0.25% (w/v) trypsin-EDTA. Cells were diluted to a density of 3.5-4.5×10^6 cells/mL with media consisting of CHO-S-SFM II (Sigma), 25 mM HEPES (Sigma) and Soy bean trypsin inhibitor (Sigma).
Whole-Cell Patch Clamp Recording
FRT-TMEM16A cells were whole-cell patch clamped using an automated planar patch clamp system (Qpatch, Sophion). Briefly, once high resistance (GOhm) seals were established between the cells and the planar recording array the patch was ruptured using suction pulses to establish the whole-cell recording configuration of the patch clamp technique. The assay employed the following solutions (all reagents Sigma):
Intracellular solution (mM): N-methyl-D-glucamine 130, CaCl2 18.2, MgCl2 1, HEPES 10, EGTA 10, BAPTA 20, Mg-ATP 2, pH 7.25, 325mOsm with sucrose.
Extracellular solution (mM): N-methyl-D-glucamine 130, CaCl2 2, MgCl2 1, HEPES 10, pH 7.3, 320 mOsm with sucrose.
The intracellular solution buffers intracellular calcium at levels required to give —20% activation of the maximal TMEM16A mediated current (EC20 for calcium ions). Cells were voltage clamped at a holding potential of -70mV and a combined voltage step (to +70 mV)/ramp (−90 my to +90 mV) was applied at 0.05 Hz. After a period of current stabilisation test compounds, solubilised in 100% (v/v) DMSO and subsequently diluted into extracellular solution, were applied to generate a cumulative concentration response curve. Each concentration of test compound was incubated for 5 minutes before addition of the next concentration. After the final concentration was tested a supramaximal concentration of either a known active positive modulator or the TMEM16A inhibitor, CaCCinhA01 (Del La Fuente et al, 2008) was added to define the upper and lower limits of the assay.
Compound activity was quantified by measuring the increase in current upon compound addition and expressing this as a percentage increase of baseline TMEM16A current level. Percentage increases in current were determined for each concentration and the data plotted as a function of concentration using either the Qpatch software or Graphpad Prism v6.05 providing the concentration which gave 50% of its maximal effect (EC50) and maximum efficacy (percentage of baseline increase).
In FIG. 1, IBL equals baseline current, km equals the peak current during test compound concentration 1 incubation period and so on.
Peak TMEM16A current at +70mV was plotted as a function of time over the assay period. Baseline current (IBL) was measured after a period of stabilisation. The increase in current for each compound addition was determined by taking the peak current during the incubation period and subtracting the current from the previous recording period and then expressing this as a percentage of the baseline current. For test compound concentration 1 in FIG. 1 this is:
For each additional concentration tested the increase in current was determined by subtracting the current from the previous incubation period and normalising the baseline value—for test concentration 2 in FIG. 1 this is:
The values for each test concentration were plotted as a cumulative function of concentration e.g. for test concentration two this would be the sum of the peak changes measured during concentration one plus concentration two.

The structures appear in SMILES notation.

`CC(C)(C)c1nc2cc(C(=O)NCc3cc(Cl)ccc3O)ccc2[nH]1` [Example 1.9, 2-tert-Butyl-N-[(5-chloro-2-hydroxy-phenyl)methyl]-1H-benzimidazole-5-carboxamide]: the activation at 3.33 µM turned out to be 52.1%. Turning to `CC(C)(C)OC(=O)NCc1nc2cc(C(=O)NCC3CCCCCC3)ccc2[nH]1` [Example 1.10, tert-Butyl N-[[5-(cycloheptylmethylcarbamoyl)-1H-benzimidazol-2-yl]methyl] carbamate], the activation at 3.33 µM stood at 110% and the EC50 came out at 892 nM. In the same order, the values of `CC1(CNC(=O)c2ccc3[nH]c(Cc4ccccc4)nc3c2)CCCCC1` [Example 1.10.1, 2-Benzyl-N-1(1-methylcyclohexyl)methylj-1H-benzimidazole-5-carboxamide] are 124% and 210 nM. `O=C(NCC1CCCCCCC1)c1ccc2[nH]c(Cc3ccccc3)nc2c1` [Example 1.10.2, 2-Benzyl-N-(cyclooctylmethyl)-1H-benzimidazole-5-carboxamide]: the activation at 3.33 µM is 76.1% and the EC50 was 192 nM. With `CC(C)(C)OC(=O)NCC1(CC(=O)Nc2ccc3[nH]c(Cc4ccccc4)nc3c2)CCCCC1` [Example 2.1, tert-Butyl N-[[1-[2-[(2-benzyl-1H-benzimidazol-5-yl)amino]-2-oxo-ethyl]cyclohexyl]methyl]carbamate], the activation at 3.33 µM stood at 215% and the EC50 stood at 860 nM. Taken in the same sequence, the figures for `O=C(CC1CCC(F)(F)CC1)Nc1ccc2[nH]c(Cc3ccccc3)nc2c1` [Example 2.1.1] were 47.6% and 582 nM. In the case of `COCC(NC(=O)OC(C)(C)C)c1nc2cc(NC(=O)CC3C4CC5CC(C4)CC3C5)ccc2[nH]1` (stereo not shown) [Example 2.2, tert-Butyl N-[1-[5-[[2-(2-adamantyl)acetyl]amino]-1H-benzimidazol-2-yl]-2-methoxy-ethyl]carbamate], the activation at 3.33 µM stood at 197% and the half-maximal effective concentration (EC50) worked out at 622 nM. As for `CN(C(=O)OC(C)(C)C)[C@H](c1ccccc1)c1nc2cc(NC(=O)CC3C4CC5CC(C4)CC3C5)ccc2[nH]1` (stereo partly shown) [Example 2.2.1], the activation at 3.33 µM is 97.7% and the concentration for a half-maximal effect (EC50) is 907 nM.

Consider `CN(C(=O)OC(C)(C)C)[C@@H](c1ccccc1)c1nc2cc(NC(=O)CC3C4CC5CC(C4)CC3C5)ccc2[nH]1` (stereo partly shown) [Example 2.2.2], for which the activation at 3.33 µM is 127% and the EC50 is 948 nM. Regarding `CCN(Cc1nc2ccc(NC(=O)CC3C4CC5CC(C4)CC3C5)cc2[nH]1)C(=O)OC(C)(C)C` (stereo not shown) [Example 2.2.3], the activation at 3.33 µM was determined as 155% and the EC50 was 1040 nM. Taken in the same sequence, the figures for `COCCN(Cc1nc2ccc(NC(=O)CC3C4CC5CC(C4)CC3C5)cc2[nH]1)C(=O)OC(C)(C)C` (stereo not shown) [Example 2.2.4] were 190% and 1080 nM. `COCCc1nc2ccc(NC(=O)CC3C4CC5CC(C4)CC3C5)cc2[nH]1` (stereo not shown) [Example 2.2.5, 2-(2-Adamantyl)-N[2-(2-methoxyethyl)-3H-benzimidazol-5-yl]acetamide]: the activation at 3.33 µM was determined as 113% and the EC50 was found to be 758 nM. For the compound `COCCCc1nc2cc(NC(=O)CC3C4CC5CC(C4)CC3C5)ccc2[nH]1` (stereo not shown) [Example 2.2.6, 2-(2-Adamantyl)-N[2-(3-methoxypropyl)-1H-benzimidazol-5-yl]acetamide], the activation at 3.33 µM stood at 167% and the concentration for a half-maximal effect (EC50) amounted to 780 nM. Turning to `CN(Cc1nc2cc(NC(=O)CC3C4CC5CC(C4)CC3C5)ccc2[nH]1)C(=O)OC(C)(C)C` (stereo not shown) [Example 2.3, tert-Butyl N-[[5-[[2-(2-adamanty)acetyl]amino]-1H-benzimidazol-2-yl]methyl]-N-methyl-carbamate], the activation at 3.33 µM turned out to be 201% and the half-maximal effective concentration (EC50) is 1070 nM. Taken in the same sequence, the figures for `O=C(NCC1CCCCCC1)c1ccc2[nH]c(C3COc4ccccc43)nc2c1` (stereo not shown) [Example 2.4, N-(Cycloheptylmethyl)-2-(2,3-dihydrobenzofuran-3-yl)-1H-benzimidazole-5-carboxamide] were 133% and 658 nM.

Take `O=C(CC1C2CC3CC(C2)CC1C3)Nc1ccc2[nH]c(C(O)c3ccccc3)nc2c1` (stereo not shown) [Example 2.5, 2-(2-Adamantyl)-N-12-[hydroxy(phenyl)methyl]-1H-benzimidazol-5-yljacetamide]: the activation at 3.33 µM came out at 58.9% and the concentration giving a half-maximal response (EC50) came to 150 nM. In the same order, the values of `O=C(CC1CCCCC1)Nc1ccc2[nH]c(-c3ccccc3)nc2c1` [Example 3.1, 2-Cyclohexyl-N-(2-phenyl-1H-benzimidazol-5-yl)acetamide] are 74% and 287 nM. In the same order, the values of `O=C(Nc1ccc2[nH]c(Cc3ccccc3)nc2c1)C12CC3CC(CC(C3)C1)C2` [Example 3.2, N-(2-Benzyl-1H-benzimidazol-5-yl)adamantane-1-carboxamide] are 58.5% and 332 nM. In the case of `O=C(NCC1CCCCCC1)c1cc(F)c2[nH]c(Cc3cccc(O)c3)nc2c1` [Example 3.3, N-(Cycloheptylmethyl)-7-fluoro-2-[(3-hydroxyphenyl)methyl]-1H-benzimidazole-5-carboxamide], the activation at 3.33 µM came to 114% and the EC50 amounted to 554 nM. Taken in the same sequence, the figures for `O=C(NCC1CCCCCC1)c1cc2nc(Cc3cccc(O)c3)[nH]c2cc1F` [Example 3.3.1, N-(Cycloheptylmethyl)-6-fluoro-2-[(3-hydroxyphenyl)methyl]-1H-benzimidazole-5-carboxamide] were 95.8% and 471 nM. Take `O=C(NCC1CCCCCC1)c1ccc2[nH]c(Cc3cccc(O)c3)nc2c1F` [Example 3.3.2, N-(Cycloheptylmethyl)-4-fluoro-2-[(3-hydroxyphenyl)methyl]-1H-benzimidazole-5-carboxamide]: the activation at 3.33 µM stood at 90.2% and the 50% effective concentration (EC50) worked out at 598 nM. Turning to `Cc1noc(C)c1Cc1nc2cc(NC(=O)CC3C4CC5CC(C4)CC3C5)ccc2[nH]1` (stereo not shown) [Example 3.4.1], the activation at 3.33 µM came out at 116% and the EC50 was 576 nM.
